In the oligonucleotide strings, read from the 5' end, every base follows the letter of its sugar. An asterisk marks phosphorothioate; unmarked linkages are phosphodiester. Other units and linkages are bracketed, terminal groups are in braces. A string of capitals states the bases alone. e = 2'-O-(2-methoxyethyl) (MOE); [5mC] = 5-methylcytosine
Key:
[1] = test system: mir-21 pri-miRNA; assay: mir-21 pri-miRNA expression in HeLa cells (real-time RT-PCR); assay type: cell-based, human; conditions: HeLa cells, 100 nM, real-time RT-PCR
[2] = test system: PPP2CB protein; assay: Immunoblot of PPP2CB protein in differentiating adipocytes; assay type: cell-based, human; conditions: differentiating adipocytes 7- and 10-days post-differentiation, 250 nM
Procedure: When miRNAs have effects on the expression of downstream genes or proteins encoded by these genes, it is advantageous to measure the protein levels of those gene products, and to do this, western blot (immunoblot) analysis is employed. Immunoblot analysis is carried out using standard methods. Briefly, preadipocytes and differentiating adipocytes were cultured as described previously, and differentiating adipocytes are sampled at several timepoints after stimulation of differentiation. Cells were treated with 250 nM oligomeric compounds and harvested 16-20 h after oligomeric compound treatment. Cells were washed, lysed in RIPA buffer with protease inhibitor cocktail (Roche Diagnostics Corporation, Indianapolis, Ind.), suspended in Laemmli buffer (20 ul/well), boiled for 5 minutes and loaded onto either an 8% SDS-PAGE or a 4-20% gradient SDS-PAGE gel. Gels are run for approximately 1.5 hours at 150 V, and transferred to PVDF membrane for western blotting. […] Bands are visualized and quantitated using a PHOSPHORIMAGER™ (Molecular Dynamics, Sunnyvale Calif.) or the ChemiDoc™ system (Bio-Rad Laboratories, Inc., Hercules, Calif.). Thus, the effects of treatment of many cell types (including, but not limited to, preadipocytes, differentiating adipocytes, HeLa, T-24 and A549 cells) with oligomeric compounds of the present invention on the levels of gene expression products can be assessed. […]

Row | Substance | mir-21 pri-miRNA expression % UTC [1] [% UTC] | PPP2CB protein levels [2]
1 | 327917 (antisense eT*e[5mC]*eA*eA*e[5mC]*eA*eT*e[5mC]*eA*eG*eT*e[5mC]*eT*eG*eA*eT*eA*eA*eG*e[5mC]*eT*eA) [compound 327917] | 249 | –
2 | TGAGCTACAGTGCTTCATCTCA [ISIS 327901] (chemistry not given here) [uniform 2′-MOE PS; targets mir-143] | – | higher

— patent US8178506B2, “Oligomeric compounds and compositions for use in modulation of small non-coding RNAs” (Regulus Therapeutics Inc., priority 2003, dated 2012)
